Tests used:
Wnt/β-catenin pathway = experiment: Wnt reporter assay (TCF-Luciferase, Firefly) in DBTRG-05MG cells; type: cell-based; details: Homo sapiens, 24 hours after compound addition
Procedure, shortened: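 DBTRG-05MG cells carrying a 4×TCF-driven firefly luciferase reporter, kept under Zeocin or Zeocin plus Hygromicin selection. Compounds added 36 hours after plating at 8 points from 60 μM to 0.185 μM (0.6% DMSO), triplicate, for 24 hours. Firefly and Renilla luminescence each expressed as % of control; IC50 from four-parameter sigmoid fit.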

DBTRG cells = experiment: Soft agar anchorage independent assay; type: cell-based; details: 504 h, colonies scored 3 weeks later, read-out: 1050 value in the soft agar assay
Experimental: The pharmacological activity of the compounds of the invention may be tested in vitro for growth inhibition against tumour cell lines. Such cell lines may, for example be representative of glioblastoma (such as DBTRG-05MG), or colorectal (for example DLD-1, HCT116) cancer. The different genetic background of the cancer cell will facilitate to understand to which level of the pathway the compounds work. If the cells harbour a truncated APC allele, the destruction complex activity is affected; if cells carry a gain of function mutation in the β-catenin gene, which prevents β-catenin protein degradation, this leads to constitutive activation of downstream genes. There are many assays available for testing the growth inhibition.
Soft Agar Anchorage Independent Assay
DBTRG cells were seeded into a 24-well format in the presence of carrier alone or compound (0.6% DMSO (v/v)). Each well is composed of two agar layers: the bottom layer consists of 0.6% Agar while the top has 0.35% Agar plus cells and compound. Cells (2500 per well) were incubated with 7 points dilution compound the day of the plating and the colonies were scored 3 weeks later after o/n staining with MTT solution. Imaging and counting of the colonies was done with the GelCount™ instrument (Oxford Optronix, UK). For IC50 determination the data were expressed as % of control, values were calculated using XLFit version 4.2, with a four parameters sigmoid function (XLFit model 205).

| SMILES | IC50 (Wnt/β-catenin pathway) | IC50 (DBTRG cells) |
| --- | --- | --- |
| O=C(C1CCC1)N1CCN(C(=O)[C@H]2CC[C@H](Cn3c(=O)[nH]c4ccccc4c3=O)CC2)CC1 [Example 60] | 0.3 to 30 µM | 0.9 to 30 µM |
| COCC(=O)N1CCN(C(=O)[C@H]2CC[C@H](Cn3c(=O)c4cc(OC)ccc4n(C)c3=O)CC2)CC1 [Example 66] | 0.3 to 30 µM | 0.9 to 30 µM |
| COc1ccc2c(c1)CN(C[C@H]1CC[C@H](C(=O)N3CCN(C(=O)C4CC4)CC3)CC1)C(=O)N2 [Example 71] | 0.3 to 30 µM | 0.9 to 30 µM |
| COc1ccc2[nH]c(=O)n(C[C@H]3CC[C@H](C(=O)N4CCN(C(=O)C5CC5)CC4)CC3)c(=O)c2c1 [Example 75] | 0.3 to 30 µM | 0.9 to 30 µM |
| COCC(=O)N1CCN(C(=O)[C@H]2CC[C@H](Cn3c(=O)[nH]c4ccc(OC)cc4c3=O)CC2)CC1 [Example 77] | 0.3 to 30 µM | 0.9 to 30 µM |
| COc1ccc2c(c1)c(=O)n(C[C@H]1CC[C@H](C(=O)N3CCN(C(=O)C4CC4)CC3)CC1)c(=O)n2C [Example 78] | 0.3 to 30 µM | 0.9 to 30 µM |
| O=C(C1CC1)N1CCN(C(=O)[C@H]2CC[C@H](Cn3c(=O)c4ccccc4n(CCF)c3=O)CC2)CC1 [Example 79] | 0.3 to 30 µM | 0.9 to 30 µM |
| Cn1c(=O)n(C[C@H]2CC[C@H](C(=O)N3CCN(C(=O)C4CC4)CC3)CC2)c2ccccc21 [Example 80] | 0.3 to 30 µM | 0.9 to 30 µM |
| COc1ccc2c(c1)c(=O)n(C[C@H]1CC[C@H](C(=O)N3CCN(C)C(=O)C3)CC1)c(=O)n2C [Example 92] | 0.3 to 30 µM | 0.9 to 30 µM |
| COc1ccc2[nH]c(=O)n(C[C@H]3CC[C@H](C(=O)N4CCN(C(C)=O)CC4)CC3)c(=O)c2c1 [Example 99] | 0.3 to 30 µM | 0.9 to 30 µM |
| COc1ccc2[nH]c(=O)n(C[C@H]3CC[C@H](C(=O)N4CCN(C(=O)[C@H]5CCCO5)CC4)CC3)c(=O)c2c1 [Example 109] | 0.3 to 30 µM | 0.9 to 30 µM |
| COC(=O)N1CCN(C(=O)[C@H]2CC[C@H](Cn3c(=O)[nH]c4ccc(OC)cc4c3=O)CC2)CC1 [Example 116] | 0.3 to 30 µM | 0.9 to 30 µM |
| COc1ccc2c(c1)c(=O)n(C[C@H]1CC[C@H](C(=O)N3CCN(C(=O)c4cncn4C)CC3)CC1)c(=O)n2C [Example 122] | 0.3 to 30 µM | 0.9 to 30 µM |
| COc1ccc2c(c1)n(C[C@H]1CC[C@H](C(=O)N3CCN(C(=O)C4CC4)CC3)CC1)c(=O)n2C [Example 135] | 0.3 to 30 µM | 0.9 to 30 µM |
| COc1ccc2c(c1)c(=O)n(C[C@H]1CC[C@H](C(=O)N3CCN(C(C)=O)CC3)CC1)c(=O)n2C [Example 136] | 0.3 to 30 µM | 0.9 to 30 µM |
| COc1ccc2c(c1)c(=O)n(C[C@H]1CC[C@H](C(=O)N3CCN(C(=O)c4ccno4)CC3)CC1)c(=O)n2C [Example 146] | 0.3 to 30 µM | 0.9 to 30 µM |
| Cc1ccc2c(n1)n(C[C@H]1CC[C@H](C(=O)N3CCN(C(=O)C4CC4)CC3)CC1)c(=O)n2C [Example 169] | 0.3 to 30 µM | 0.9 to 30 µM |
| COC(=O)N1CCN(C(=O)[C@H]2CC[C@H](Cn3c(=O)c4cc(OC)ccc4n(C)c3=O)CC2)CC1 [Example 175] | 0.3 to 30 µM | 0.9 to 30 µM |

— US8865704B2, “Wnt pathway antagonists” (Siena Biotech S.p.A., priority 2009, dated 2014)
